Where two headings read alike, the source gives them in different places.
Key:
[1] = test system: SMN2 mRNA; assay: RT-qPCR splicing assay, SMN2 canonical junction (CJ) mRNA; format: cell-based, human; settings: Homo sapiens
Outline: (§1)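 Cells are plated (A673 allowed 24 h to adhere), dosed with an 11-point 3-fold series topping at 10 uM final, and incubated 24 h at 37 °C. Lysis is followed by cDNA synthesis and qPCR of the CJ transcript, normalized to a housekeeping gene.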

[2] = test system: Target C; assay: RT-qPCR splicing assay panel, Target C canonical junction (CJ) mRNA; format: cell-based, human; settings: Homo sapiens
Outline: as §1

[3] = test system: HTT mRNA; assay: RT-qPCR splicing assay, HTT canonical junction (CJ) and alternative junction (AJ) mRNA; format: cell-based, human; settings: Homo sapiens; for AC50: increase in HTT alternative junction (AJ) mRNA, read-out: HTT AJ AC50
Outline: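 Splicing switches were read by TaqMan RT-qPCR on lysates, quantifying exon-exon junctions of the canonical and alternative-exon isoforms. Lysates came from K562 (GAPDH/GUSB reference) or A673 (PPIA reference) cells exposed 24 h to compound in 11 threefold steps from 10 uM, with DMSO ≤0.25%.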

[4] = test system: K562 (human chronic myelogenous leukemia) cells; assay: Cell Titer Glo 2.0 cell viability assay; format: cell-based; settings: Homo sapiens, K562, 72 h, K562 cells, 72 hours, Cell Titer Glo 2.0; read-out: K562 GI50
[5] = Table 5 panel, canonical junction qPCR, compound concentration having 50% response in CJ decrease, read-out: SMN2 IC50 (decrease in CJ mRNA levels)
[6] = Table 5 panel, canonical junction qPCR, compound concentration having 50% response in CJ decrease, read-out: Target C IC50 (decrease in CJ mRNA levels)
[7] = decrease in HTT canonical junction (CJ) mRNA, RT-qPCR, read-out: HTT CJ IC50
[8] = Table 5 panel, canonical junction qPCR, compound concentration having 50% response in CJ decrease, read-out: HTT IC50 (decrease in CJ mRNA levels)
[9] = canonical junction qPCR panel, Table 5, read-out: SMN2 (decrease in CJ mRNA levels, IC50)
[10] = canonical junction qPCR panel, Table 5, read-out: Target C (decrease in CJ mRNA levels, IC50)
[11] = canonical junction qPCR panel, Table 5, read-out: HTT (decrease in CJ mRNA levels, IC50)

Structure (SMILES)	IC50 [1, 5] [nM]	IC50 [2, 6] [nM]	IC50 [3, 7] [nM]	IC50 [3, 8] [nM]	GI50 [4] [nM]	IC50 [1, 9] [nM]	IC50 [2, 10] [nM]	IC50 [3, 11] [nM]	AC50 ([3]; RT-qPCR) [nM]
Cc1nc2c(F)cc(-c3ccc4c(c3)CCN(C3CCNCC3)C4=O)cc2s1 [Compound 226]	100 to 1000	> 10000	> 10000	> 10000	1000 to 10000	–	–	–	> 10000
Cc1cn2cc(-c3ccc4c(=O)n(C5CCN(C)CC5)cnc4c3F)cc(F)c2n1 [Compound 227]	100 to 1000	> 10000	1000 to 10000	1000 to 10000	1000 to 10000	–	–	–	1000 to 10000
Cc1cn2cc(-n3cnc4cc(N5CCN(C)CC5)ccc4c3=O)cc(F)c2n1 [Compound 229]	> 10000	> 10000	> 10000	> 10000	> 10000	–	–	–	> 10000
Cc1cc(-c2ccc3c(=O)n(C4CCNCC4)cnc3c2F)cc2cn(C)nc12 [Compound 234]	< 100	> 10000	1000 to 10000	1000 to 10000	1000 to 10000	–	–	–	1000 to 10000
Cc1cc(-c2ccc3c(=O)n(C4CCN(C)CC4)cnc3c2F)cc2cn(C)nc12 [Compound 235]	100 to 1000	> 10000	> 10000	> 10000	1000 to 10000	–	–	–	> 10000
Cc1cn2nc(-n3cnc4cc(N5CCNCC5)ccc4c3=O)cc(C)c2n1 [Compound 241]	1000 to 10000	1000 to 10000	1000 to 10000	1000 to 10000	1000 to 10000	–	–	–	1000 to 10000
Cc1c(O)c(-c2ncc3c(=O)n([C@H]4CC[C@@H](N(C)C)CC4)ccc3n2)cc2cn(C)nc12 [Compound 1460, 6-((1s,4s)-4-(dimethylamino)cyclohexyl)-2-(6-hydroxy-2,7-dimethyl-2H-indazol-5-yl)pyrido[4,3-d]pyrimidin-5(6H)-one]	–	–	1000 to 10000	–	100 to 1000	< 100	1000 to 10000	100 to 1000	100 to 1000
Cc1c(O)c(-c2ccc3c(=O)n([C@@H]4C[C@@H](C)N[C@@H](C)C4)ccc3n2)cc2cn(C)nc12 [Compound 1463, 6-[(2S,6R)-2,6-dimethyl-4-piperidyl]-2-(6-hydroxy-2,7-dimethyl-indazol-5-yl)-1,6-naphthyridin-5-one]	–	–	1000 to 10000	–	100 to 1000	< 100	1000 to 10000	100 to 1000	100 to 1000
Cc1c(O)c(-c2ccc3c(=O)n(C4CCNC4)cc(C)c3n2)cc2cn(C)nc12 (stereo not drawn) [Compound 1467]	–	–	> 10000	–	100 to 1000	< 100	> 10000	1000 to 10000	1000 to 10000
Cc1cn2cc(-c3ncc4c(=O)n(C56CCC(N)(CC5)C6)ccc4n3)cc(F)c2n1 [Compound 1469, 6-(4-aminonorbornane-1-yl)-2-(8-fluoro-2-methyl-imidazo[1,2-a]pyridin-6-yl)pyrido[4,3-d]pyrimidin-5-one]	–	–	1000 to 10000	–	100 to 1000	< 100	100 to 1000	1000 to 10000	1000 to 10000
Cn1cc2cc(-c3ncc4c(=O)n(C56CCC(N)(CC5)C6)ccc4n3)c(O)cc2n1 [Compound 1470]	–	–	> 10000	–	100 to 1000	< 100	1000 to 10000	1000 to 10000	1000 to 10000
Cc1c(O)c(-c2ncc3c(=O)n([C@@H]4C[C@H]5COC[C@@H](C4)N5)ccc3n2)cc2cn(C)nc12 [Compound 1471]	–	–	100 to 1000	–	100 to 1000	< 100	100 to 1000	100 to 1000	100 to 1000

Now from value to compound, other results behind:

IC50 [1, 5] [nM]	IC50 [2, 6] [nM]	IC50 [3, 7] [nM]	IC50 [3, 8] [nM]	GI50 [4] [nM]	IC50 [1, 9] [nM]	IC50 [2, 10] [nM]	IC50 [3, 11] [nM]	Structure (SMILES)	AC50 ([3]; RT-qPCR) [nM]
100 to 1000	100 to 1000	100 to 1000	100 to 1000	100 to 1000	–	–	–	Cc1cn2cc(-n3cnc4cc(N5CCNCC5)ccc4c3=O)cc(F)c2n1 [Compound 228]	100 to 1000
< 100	< 100	< 100	< 100	100 to 1000	–	–	–	Cc1cn2cc(-c3cc(F)c4c(=O)n(C5CCNCC5)cnc4c3)cc(F)c2n1 [Compound 230]	< 100
< 100	1000 to 10000	100 to 1000	100 to 1000	100 to 1000	–	–	–	Cc1cn2cc(-c3cc(F)c4c(=O)n(C5CCN(C)CC5)cnc4c3)cc(F)c2n1 [Compound 231, 5-fluoro-7-{8-fluoro-2-methylimidazo[1,2-a]pyridin-6-yl}-3-(1-methylpiperidin-4-yl)quinazolin-4-one]	100 to 1000
< 100	100 to 1000	< 100	< 100	100 to 1000	–	–	–	Cc1cc(-c2cc(F)c3c(=O)n(C4CCNCC4)cnc3c2)cc2cn(C)nc12 [Compound 232]	< 100
< 100	1000 to 10000	100 to 1000	100 to 1000	100 to 1000	–	–	–	Cc1cc(-c2cc(F)c3c(=O)n(C4CCN(C)CC4)cnc3c2)cc2cn(C)nc12 [Compound 233]	100 to 1000
< 100	100 to 1000	100 to 1000	100 to 1000	100 to 1000	–	–	–	Cc1cn2cc(-c3ccc4c(=O)n(C5CCNC6(CC6)C5)cnc4c3)cc(F)c2n1 (stereo not drawn) [Compound 236]	100 to 1000
< 100	1000 to 10000	100 to 1000	100 to 1000	100 to 1000	–	–	–	Cc1cn2cc(-c3ccc4c(=O)n(C5CCNC(C)(C)C5)cnc4c3)cc(F)c2n1 (stereo not drawn) [Compound 237]	100 to 1000
< 100	100 to 1000	< 100	< 100	100 to 1000	–	–	–	Cc1cn2nc(-c3cc(F)c4c(=O)n(C5CCN(C)CC5)cnc4c3)cc(C)c2n1 [Compound 242]	< 100
–	–	100 to 1000	–	100 to 1000	< 100	100 to 1000	100 to 1000	Cc1cn2cc(-c3ncc4c(=O)n([C@H]5CCNC6(CC6)C5)ccc4n3)cc(F)c2n1 [Compound 1458, 6-[(7S)-4-azaspiro[2.5]octan-7-yl]-2-(8-fluoro-2-methyl-imidazo[1,2-a]pyridin-6-yl)pyrido[4,3-d]pyrimidin-5-one]	100 to 1000
–	–	100 to 1000	–	< 100	< 100	100 to 1000	100 to 1000	Cc1c(O)c(-c2ncc3c(=O)n([C@H]4CC[C@H](N(C)C)CC4)ccc3n2)cc2cn(C)nc12 [Compound 1459, 6-((1r,4r)-4-(dimethylamino)cyclohexyl)-2-(6-hydroxy-2,7-dimethyl-2H-indazol-5-yl)pyrido[4,3-d]pyrimidin-5(6H)-one]	100 to 1000
–	–	100 to 1000	–	< 100	< 100	100 to 1000	100 to 1000	Cc1c(O)c(-c2ncc3c(=O)n([C@H]4CCN[C@H](C)C4)ccc3n2)cc2cn(C)nc12 [Compound 1461, 2-(6-hydroxy-2,7-dimethyl-indazol-5-yl)-6-[(2R,4S)-2-methyl-4-piperidyl]pyrido[4,3-d]pyrimidin-5-one]	100 to 1000
–	–	100 to 1000	–	< 100	< 100	100 to 1000	100 to 1000	Cc1c(O)c(-c2ncc3c(=O)n([C@@H]4CCN[C@@H](C)C4)ccc3n2)cc2cn(C)nc12 [Compound 1462, 2-(6-hydroxy-2,7-dimethyl-indazol-5-yl)-6-[(2S,4R)-2-methyl-4-piperidyl]pyrido[4,3-d]pyrimidin-5-one]	100 to 1000
–	–	100 to 1000	–	< 100	< 100	1000 to 10000	100 to 1000	Cc1c(O)c(-c2ccc3c(=O)n([C@H]4C[C@@H](C)N[C@@H](C)C4)ccc3n2)cc2cn(C)nc12 [Compound 1464, 6-[(2S,6R)-2,6-dimethyl-4-piperidyl]-2-(6-hydroxy-2,7-dimethyl-indazol-5-yl)-1,6-naphthyridin-5-one]	100 to 1000
–	–	100 to 1000	–	100 to 1000	< 100	100 to 1000	100 to 1000	Cn1cc2cc(-c3ncc4c(=O)n([C@H]5CCNC5)ccc4n3)c(O)c(F)c2n1 [Compound 1465]	100 to 1000
–	–	100 to 1000	–	100 to 1000	< 100	100 to 1000	100 to 1000	Cn1cc2cc(-c3ncc4c(=O)n([C@@H]5CCNC5)ccc4n3)c(O)c(F)c2n1 [Compound 1466]	100 to 1000
–	–	100 to 1000	–	< 100	< 100	100 to 1000	100 to 1000	Cn1cc2cc(-c3ncc4c(=O)n(C56CCC(N)(CC5)C6)ccc4n3)c(O)c(F)c2n1 [Compound 1468]	100 to 1000

Source: patent US20250332173A1, “COMPOUNDS AND METHODS FOR MODULATING NUCLEIC ACID SPLICING” (REMIX THERAPEUTICS INC., priority 2021, published 2025)
